How the values were obtained:
3T3-L1 cells [1] = test: Differentiation of 3T3-L1 cells into beige cells; format: cell-based; conditions: for differentiation of 3T3-L1 cells into beige cells: 100 nM, 3 to 5 days
Experimental: (§1) The effect of the Clk1 inhibitor DC677 or DC761 on 3T3-L1 cells was examined. 3T3-L1 cells were incubated with 50 nM TG003 (an inhibitor of Clk1), 100 nM DC677, or 100 nM DC761 for 3 to 5 days. Adipocytes were used as a control. UCP1 expression was determined (results are shown in FIG. 1A and FIG. 2A; RQ is reference quotient). Oil Red O (obtained from Sigma-Aldrich, St. Louis, Mo.) was used to stain triglycerides and lipids, and the levels of Oil Red O were determined by measuring absorbance at 520 nm (results are shown in FIG. 1C and FIG. 2C). MitoTracker™ Green (Thermo Fischer Scientific, Waltham, Mass.) was used to stain mitochondria, and levels were determined by measuring absorbance at 495 nm (results are shown in FIG. 1D and FIG. 2D).

PGC1α = PGC1α expression in 3T3-L1 cells; format: cell-based; conditions: 100 nM, 3 to 5 days during terminal differentiation, vs adipocyte control
3T3-L1 cells [2] = test: MitoTracker Green staining of mitochondria in 3T3-L1 cells; format: cell-based; conditions: dose of 100 nM
Experimental: as §1
The effect of the Clk1 inhibitor DC677 on 3T3-L1 cells was examined with fluorescence microscopy. 3T3-L1 cells were cultured in a 12-well plate and differentiated by […] (MDI). The cells were then incubated with insulin, TG003, or DC677. On day 8, the cells were stained with MitoTracker™ Green (Thermo Fischer Scientific, Waltham, Mass.). In FIG. 3, the cell treatment is as follows: (1) insulin as a control; (2) 50 nm TG003 added on day 2; (3) 50 nm TG003 added on day 4; (4) 100 nm DC677 added on day 2; (5) 100 nm DC677 added on day 4; and (6) 100 nm DC677 added on day 6.

3T3-L1 cells [3] = test: Oil Red O staining of triglycerides and lipids in 3T3-L1 cells; format: cell-based; conditions: 100 nM, 3 to 5 days during terminal differentiation
Experimental: as §1

UCP1 = UCP1 expression in 3T3-L1 cells; format: cell-based; conditions: 100 nM, 3 to 5 days during terminal differentiation, vs adipocyte control
Experimental: as §1

Clk1 = conditions: stated as 'may be about'; no test described; cited from earlier work

Row | SMILES | performance compared with TG003 (3T3-L1 cells [1]; 100 nM DC677 vs 50 nM TG003) | differentiation of 3T3-L1 cells into beige cells (3T3-L1 cells [1]) | PGC1α expression (PGC1α) | mitochondrial biogenesis, effectiveness compared to TG003 at 50 nM (3T3-L1 cells [2]) | lipid storage and lipid droplet size (3T3-L1 cells [3]) | UCP1 expression (UCP1) | IC50 (Clk1) [nM]
1 | O=C1Nc2ccc(Br)cc2/C1=C\c1nc2ccccc2c(=O)n1Cc1ccccc1 [DC677, 3-benzyl-2-[(5-bromo-2-oxo-1,2-dihydro-3H-indol-3-ylidene)methyl]-4(3H)-quinazolinone] | performs equally well to TG003 | can differentiate into “beige” cells | increased | highly effective | stored fewer lipids in smaller lipid droplets | increased | 
2 | CC(=O)Nc1cccc(N2C(=O)c3cccc4cc([N+](=O)[O-])cc(c34)C2=O)c1 [DC761, N-[3-(5-nitro-1,3-dioxo-1H-benzo[de]isoquinolin-2(3H)-yl)phenyl]acetamide] |  | can differentiate into “beige” cells | increased |  | stored fewer lipids in smaller lipid droplets | increased | 
